{"source": "paper PMC9820167", "about": "“Design and Synthesis of Conformationally Flexible Scaffold as Bitopic Ligands for Potent D3-Selective Antagonists” (International Journal of Molecular Sciences, 2022)", "key": {"Adrenergic alpha1A": {"molecular_target": "T1, Adrenergic alpha1A (Homo sapiens, UniProt P35348)", "T1 sequence (P35348 1-466)": "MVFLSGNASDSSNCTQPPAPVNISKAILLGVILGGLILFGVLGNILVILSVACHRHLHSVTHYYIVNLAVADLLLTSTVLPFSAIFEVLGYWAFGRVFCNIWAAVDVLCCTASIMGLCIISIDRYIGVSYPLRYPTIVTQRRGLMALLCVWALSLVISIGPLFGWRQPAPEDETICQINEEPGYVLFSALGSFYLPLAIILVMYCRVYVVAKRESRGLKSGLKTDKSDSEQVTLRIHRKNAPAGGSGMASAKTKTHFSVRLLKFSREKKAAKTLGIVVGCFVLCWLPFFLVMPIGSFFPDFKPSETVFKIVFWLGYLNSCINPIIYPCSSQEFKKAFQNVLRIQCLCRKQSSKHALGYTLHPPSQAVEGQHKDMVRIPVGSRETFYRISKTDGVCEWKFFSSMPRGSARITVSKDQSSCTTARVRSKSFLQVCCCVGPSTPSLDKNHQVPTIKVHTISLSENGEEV", "experiment": "PDSP binding screen", "settings": "read-out: Ki (nM) or % inhibition at 10 µM: alpha1A"}, "Opioid DOR": {"molecular_target": "T2, Opioid DOR (Homo sapiens, UniProt P41143)", "T2 construct": "Psychoactive Drug Screening Program (PDSP)", "T2 sequence (P41143 whole entry)": "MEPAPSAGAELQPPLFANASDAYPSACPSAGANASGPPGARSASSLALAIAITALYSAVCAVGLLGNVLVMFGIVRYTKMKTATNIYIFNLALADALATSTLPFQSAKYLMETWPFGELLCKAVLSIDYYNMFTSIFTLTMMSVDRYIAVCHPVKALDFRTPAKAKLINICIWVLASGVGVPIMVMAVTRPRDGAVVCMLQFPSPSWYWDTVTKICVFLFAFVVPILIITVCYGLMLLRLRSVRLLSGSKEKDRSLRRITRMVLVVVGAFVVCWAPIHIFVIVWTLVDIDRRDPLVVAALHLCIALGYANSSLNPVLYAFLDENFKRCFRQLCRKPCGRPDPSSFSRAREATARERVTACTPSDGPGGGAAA", "experiment": "PDSP binding screen", "settings": "read-out: Ki (nM) or % inhibition at 10 µM: DOR", "excerpt": "(§1) Based on the results in the dopamine receptor radioligand binding assays, nine flexible-based compounds were selected for further evaluation for off-target binding with other GPCRs through the Psychoactive Drug Screening Program (PDSP) (Supplemental Table S2). […] For example, many of the N-aryl piperazine-based analogs that our group developed in the past for either the D2 or D3 receptor had high affinity for the 5-HT1A receptor [55, 56, 57, 58]. […] This mitochondrial-based protein is typically used as a target for imaging neuroinflammation. The results of the PDSP-binding assays also confirmed the data obtained in our lab for the binding of this panel of nine compounds to D2 and D3 receptors (Supplemental Table S2)."}, "[1]": {"molecular_target": "T3, Serotonin transporter (SERT) (Homo sapiens, UniProt P31645)", "T3 construct": "Psychoactive Drug Screening Program (PDSP)", "T3 sequence (P31645 whole entry, species assumed)": "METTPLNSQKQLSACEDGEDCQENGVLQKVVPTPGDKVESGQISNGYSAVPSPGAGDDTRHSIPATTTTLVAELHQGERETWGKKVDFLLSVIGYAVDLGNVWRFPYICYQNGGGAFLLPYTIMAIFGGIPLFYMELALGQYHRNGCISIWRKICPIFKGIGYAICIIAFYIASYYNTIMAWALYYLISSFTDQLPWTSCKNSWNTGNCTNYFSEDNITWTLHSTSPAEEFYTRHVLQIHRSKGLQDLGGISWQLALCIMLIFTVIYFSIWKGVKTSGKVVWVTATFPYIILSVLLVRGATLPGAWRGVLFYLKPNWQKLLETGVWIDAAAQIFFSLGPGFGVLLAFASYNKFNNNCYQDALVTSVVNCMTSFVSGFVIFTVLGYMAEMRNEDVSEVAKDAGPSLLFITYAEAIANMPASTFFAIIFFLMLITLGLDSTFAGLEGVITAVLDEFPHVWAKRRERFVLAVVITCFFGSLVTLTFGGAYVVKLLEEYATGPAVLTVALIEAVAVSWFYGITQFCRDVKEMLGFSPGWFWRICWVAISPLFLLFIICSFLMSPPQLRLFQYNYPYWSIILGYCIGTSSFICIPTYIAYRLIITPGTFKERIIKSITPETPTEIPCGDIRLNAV", "experiment": "PDSP binding screen", "settings": "read-out: Ki (nM) or % inhibition at 10 µM: Serotonin transporter (SERT)", "excerpt": "as §1"}, "Serotonin 5-HT5A": {"molecular_target": "T4, Serotonin 5-HT5A (Homo sapiens, UniProt P47898)", "T4 construct": "Psychoactive Drug Screening Program (PDSP)", "T4 sequence (P47898 whole entry)": "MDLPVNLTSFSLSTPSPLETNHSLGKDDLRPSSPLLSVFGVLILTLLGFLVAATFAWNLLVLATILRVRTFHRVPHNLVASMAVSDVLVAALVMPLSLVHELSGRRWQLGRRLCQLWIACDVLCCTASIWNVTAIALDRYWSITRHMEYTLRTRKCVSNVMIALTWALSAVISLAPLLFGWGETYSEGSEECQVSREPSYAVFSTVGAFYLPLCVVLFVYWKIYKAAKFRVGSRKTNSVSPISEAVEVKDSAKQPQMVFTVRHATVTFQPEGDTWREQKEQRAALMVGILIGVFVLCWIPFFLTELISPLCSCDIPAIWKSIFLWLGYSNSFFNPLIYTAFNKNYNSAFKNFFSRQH", "experiment": "PDSP binding screen", "settings": "read-out: Ki (nM) or % inhibition at 10 µM: 5-HT5A; PDSP; HCl salts", "excerpt": "as §1"}, "Serotonin 5-HT1E": {"molecular_target": "T5, Serotonin 5-HT1E (Homo sapiens, UniProt P28566)", "T5 construct": "Psychoactive Drug Screening Program (PDSP)", "T5 sequence (P28566 whole entry)": "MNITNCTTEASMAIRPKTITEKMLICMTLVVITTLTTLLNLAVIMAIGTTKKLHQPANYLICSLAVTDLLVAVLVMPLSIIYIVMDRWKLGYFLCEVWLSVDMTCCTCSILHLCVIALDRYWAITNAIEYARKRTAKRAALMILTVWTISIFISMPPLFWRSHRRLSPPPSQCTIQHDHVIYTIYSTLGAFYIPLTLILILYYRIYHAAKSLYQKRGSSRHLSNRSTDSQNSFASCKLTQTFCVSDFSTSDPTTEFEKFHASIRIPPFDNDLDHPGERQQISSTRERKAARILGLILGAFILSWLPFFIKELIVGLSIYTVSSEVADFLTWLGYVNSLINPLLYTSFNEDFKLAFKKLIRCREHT", "experiment": "PDSP binding screen", "settings": "read-out: Ki (nM) or % inhibition at 10 µM: 5-HT1E; PDSP; HCl salts", "excerpt": "as §1"}, "Muscarinic M4": {"molecular_target": "T6, Muscarinic M4 (Homo sapiens, UniProt P08173)", "T6 sequence (P08173 1-479)": "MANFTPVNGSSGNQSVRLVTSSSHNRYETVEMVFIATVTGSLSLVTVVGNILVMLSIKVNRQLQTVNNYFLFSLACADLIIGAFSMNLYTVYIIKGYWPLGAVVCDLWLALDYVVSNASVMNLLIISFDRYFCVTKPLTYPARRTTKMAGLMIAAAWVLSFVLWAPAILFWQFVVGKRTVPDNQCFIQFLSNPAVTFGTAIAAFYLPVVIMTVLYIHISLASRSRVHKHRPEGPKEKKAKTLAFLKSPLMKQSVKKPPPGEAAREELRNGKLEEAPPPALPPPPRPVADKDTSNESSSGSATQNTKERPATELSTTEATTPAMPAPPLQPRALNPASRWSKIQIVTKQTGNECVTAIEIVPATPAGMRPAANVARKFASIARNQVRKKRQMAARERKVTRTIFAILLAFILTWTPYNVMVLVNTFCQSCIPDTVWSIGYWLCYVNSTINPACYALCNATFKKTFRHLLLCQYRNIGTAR", "experiment": "PDSP binding screen", "settings": "read-out: Ki (nM) or % inhibition at 10 µM: M4"}, "Dopamine D1": {"molecular_target": "Dopamine D1 (Homo sapiens, UniProt P21728)", "sequence (P21728 whole entry)": "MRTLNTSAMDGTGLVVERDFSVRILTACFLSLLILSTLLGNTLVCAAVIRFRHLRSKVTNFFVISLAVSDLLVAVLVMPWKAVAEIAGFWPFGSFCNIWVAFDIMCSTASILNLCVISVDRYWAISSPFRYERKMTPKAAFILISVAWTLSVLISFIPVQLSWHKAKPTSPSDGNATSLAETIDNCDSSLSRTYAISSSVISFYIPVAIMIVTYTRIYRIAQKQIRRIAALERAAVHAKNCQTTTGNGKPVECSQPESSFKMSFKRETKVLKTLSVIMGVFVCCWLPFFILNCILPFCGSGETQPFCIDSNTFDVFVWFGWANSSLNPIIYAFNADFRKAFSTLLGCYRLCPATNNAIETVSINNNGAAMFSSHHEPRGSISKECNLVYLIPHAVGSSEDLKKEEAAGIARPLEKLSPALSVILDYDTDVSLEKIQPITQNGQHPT", "experiment": "PDSP binding screen", "settings": "read-out: Ki (nM) or % inhibition at 10 µM: D1"}, "Serotonin 5-HT2B": {"molecular_target": "Serotonin 5-HT2B (Homo sapiens, UniProt P41595)", "sequence (P41595 whole entry)": "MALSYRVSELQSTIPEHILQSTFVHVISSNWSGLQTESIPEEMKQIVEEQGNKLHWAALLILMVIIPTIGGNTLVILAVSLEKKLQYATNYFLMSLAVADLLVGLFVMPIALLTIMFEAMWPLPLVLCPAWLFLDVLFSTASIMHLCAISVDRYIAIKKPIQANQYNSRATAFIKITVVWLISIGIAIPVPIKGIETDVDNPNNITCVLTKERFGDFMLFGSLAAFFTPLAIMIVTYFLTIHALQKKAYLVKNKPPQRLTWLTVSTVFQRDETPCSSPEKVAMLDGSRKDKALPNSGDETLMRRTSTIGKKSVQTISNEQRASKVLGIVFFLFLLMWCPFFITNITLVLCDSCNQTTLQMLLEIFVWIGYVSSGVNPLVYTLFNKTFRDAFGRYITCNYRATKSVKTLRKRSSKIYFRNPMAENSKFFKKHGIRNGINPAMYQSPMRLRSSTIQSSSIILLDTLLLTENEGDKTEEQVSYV", "experiment": "PDSP binding screen"}, "Histamine H4": {"molecular_target": "Histamine H4 (Homo sapiens, UniProt Q9H3N8)", "sequence (Q9H3N8 whole entry)": "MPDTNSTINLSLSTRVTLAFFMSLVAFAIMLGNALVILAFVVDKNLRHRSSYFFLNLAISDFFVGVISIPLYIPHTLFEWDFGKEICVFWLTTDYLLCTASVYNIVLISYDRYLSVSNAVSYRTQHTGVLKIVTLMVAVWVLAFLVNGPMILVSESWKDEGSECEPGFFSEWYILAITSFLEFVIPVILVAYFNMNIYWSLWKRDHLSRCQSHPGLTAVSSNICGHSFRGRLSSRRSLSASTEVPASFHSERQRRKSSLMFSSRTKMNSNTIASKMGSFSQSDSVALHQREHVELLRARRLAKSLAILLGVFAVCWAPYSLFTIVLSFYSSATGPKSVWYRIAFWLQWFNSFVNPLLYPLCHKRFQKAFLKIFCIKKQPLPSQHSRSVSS", "experiment": "PDSP binding screen", "settings": "read-out: Ki (nM) or % inhibition at 10 µM: H4"}, "human D3 receptors": {"molecular_target": "human D3 receptors (Homo sapiens, UniProt P35462)", "sequence (P35462 whole entry)": "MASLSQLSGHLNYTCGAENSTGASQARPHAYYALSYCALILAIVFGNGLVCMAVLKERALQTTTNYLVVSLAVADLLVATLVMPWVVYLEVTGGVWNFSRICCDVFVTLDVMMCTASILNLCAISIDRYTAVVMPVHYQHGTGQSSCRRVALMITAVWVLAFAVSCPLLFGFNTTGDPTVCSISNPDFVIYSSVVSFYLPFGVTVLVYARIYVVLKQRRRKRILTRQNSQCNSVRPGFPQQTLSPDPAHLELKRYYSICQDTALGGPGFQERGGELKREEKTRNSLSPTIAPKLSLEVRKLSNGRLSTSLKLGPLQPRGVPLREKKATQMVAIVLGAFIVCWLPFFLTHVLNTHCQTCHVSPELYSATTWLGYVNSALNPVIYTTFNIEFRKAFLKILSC", "experiment": "Radioligand binding assay with [125I]IABN, D3 receptor", "design": "expressed in transfected cells; host or cells: HEK293", "experimental": "Two different assays were used to evaluate the properties of the analogs described above. The receptor binding affinity was measured by radioligand binding assays using [^125I]IABN with D2 or D3 receptors highly expressed HEK293 cells. The functional activity of the analogs was determined using a β-arrestin recruitment assay. The assay was initially conducted in agonist binding mode to confirm that they function as antagonists at the D3 receptor. Once this efficacy was confirmed, the assay was conducted in antagonist mode to determine the ability of the antagonist to compete with dopamine at the D3 receptor. The results of the antagonist mode assay are reported as IC50 values.\nKi values for D2 and D3 receptors were measured using [^125I]IABN in human D2 and D3 receptors expressed in HEK cells, respectively. A filtration binding assay was used to characterize membrane-associated receptor binding properties. The details for the procedures were described in the literature."}, "Serotonin 5-HT1B": {"molecular_target": "Serotonin 5-HT1B (Homo sapiens, UniProt P28222)", "sequence (P28222 whole entry)": "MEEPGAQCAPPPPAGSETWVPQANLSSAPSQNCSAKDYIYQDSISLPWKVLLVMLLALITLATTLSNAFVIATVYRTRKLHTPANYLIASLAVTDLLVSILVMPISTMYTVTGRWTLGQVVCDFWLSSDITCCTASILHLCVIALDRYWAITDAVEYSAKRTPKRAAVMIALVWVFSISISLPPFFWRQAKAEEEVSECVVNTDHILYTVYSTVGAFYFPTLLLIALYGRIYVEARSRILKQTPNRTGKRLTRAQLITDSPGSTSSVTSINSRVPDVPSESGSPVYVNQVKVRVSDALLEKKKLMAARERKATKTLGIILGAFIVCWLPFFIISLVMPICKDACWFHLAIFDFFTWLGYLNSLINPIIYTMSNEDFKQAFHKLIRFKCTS", "experiment": "PDSP binding screen", "settings": "read-out: Ki (nM) or % inhibition at 10 µM: 5-HT1B"}, "Serotonin 5-HT2C": {"molecular_target": "T7, Serotonin 5-HT2C (Homo sapiens, UniProt P28335)", "T7 sequence (P28335 33-458)": "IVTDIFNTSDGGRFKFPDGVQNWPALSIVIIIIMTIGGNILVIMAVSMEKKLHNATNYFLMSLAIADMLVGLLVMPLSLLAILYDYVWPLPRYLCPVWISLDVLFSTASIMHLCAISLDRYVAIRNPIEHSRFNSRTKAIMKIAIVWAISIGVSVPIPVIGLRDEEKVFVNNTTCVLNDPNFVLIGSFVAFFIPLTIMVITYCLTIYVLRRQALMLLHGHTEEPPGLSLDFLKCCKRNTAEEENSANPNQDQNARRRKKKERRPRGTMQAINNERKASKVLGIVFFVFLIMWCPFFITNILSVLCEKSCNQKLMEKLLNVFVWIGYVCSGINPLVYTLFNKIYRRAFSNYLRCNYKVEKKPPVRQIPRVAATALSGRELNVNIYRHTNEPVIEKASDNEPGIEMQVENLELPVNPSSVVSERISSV", "experiment": "PDSP binding screen"}, "Muscarinic M3": {"molecular_target": "Muscarinic M3 (Homo sapiens, UniProt P20309)", "sequence (P20309 whole entry)": "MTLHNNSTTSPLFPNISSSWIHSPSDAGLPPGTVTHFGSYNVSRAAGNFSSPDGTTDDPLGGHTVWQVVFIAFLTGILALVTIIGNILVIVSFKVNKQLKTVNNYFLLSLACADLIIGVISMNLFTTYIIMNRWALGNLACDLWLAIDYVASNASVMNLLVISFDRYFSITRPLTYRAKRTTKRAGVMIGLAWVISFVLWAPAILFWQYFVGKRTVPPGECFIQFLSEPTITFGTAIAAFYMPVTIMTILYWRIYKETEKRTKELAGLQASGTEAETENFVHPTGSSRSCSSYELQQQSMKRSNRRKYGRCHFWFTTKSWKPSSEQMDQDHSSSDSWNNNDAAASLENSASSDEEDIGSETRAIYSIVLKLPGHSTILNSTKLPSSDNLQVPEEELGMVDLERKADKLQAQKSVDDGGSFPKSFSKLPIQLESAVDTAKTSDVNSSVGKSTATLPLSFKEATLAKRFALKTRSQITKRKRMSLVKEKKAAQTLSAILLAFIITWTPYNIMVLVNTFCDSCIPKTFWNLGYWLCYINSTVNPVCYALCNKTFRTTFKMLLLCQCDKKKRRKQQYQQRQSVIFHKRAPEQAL", "experiment": "PDSP binding screen"}}}
{"smiles": "CCN(CCCNC(=O)c1cn2ccccc2n1)CCNC(=O)c1cc(Br)cc(OC)c1OC", "note": "[21e, N-(3-((2-(5-Bromo-2,3-dimethoxybenzamido)ethyl)(ethyl)amino)propyl)imidazo[1,2-a]pyridine-2-carboxamide]", "values": [{"measurement": "inhibition at 10 µM", "setting": "Adrenergic alpha1A", "result": "< 50", "unit": "%"}, {"measurement": "inhibition at 10 µM", "setting": "Opioid DOR", "result": "< 50", "unit": "%"}, {"measurement": "inhibition at 10 µM", "setting": "[1]", "result": "< 50", "unit": "%"}, {"measurement": "inhibition at 10 µM", "setting": "Serotonin 5-HT5A", "result": "< 50", "unit": "%"}, {"measurement": "inhibition at 10 µM", "setting": "Serotonin 5-HT1E", "result": "< 50", "unit": "%"}, {"measurement": "inhibition at 10 µM", "setting": "Muscarinic M4", "result": "< 50", "unit": "%"}, {"measurement": "inhibition at 10 µM", "setting": "Dopamine D1", "result": "< 50", "unit": "%"}, {"measurement": "Ki", "setting": "Serotonin 5-HT2B", "result": 0.443, "unit": "µM"}, {"measurement": "inhibition at 10 µM", "setting": "Histamine H4", "result": "< 50", "unit": "%"}, {"measurement": "Ki", "setting": "human D3 receptors; [125I]IABN, D3 receptors expressed in HEK cells, mean ± SEM, three experiments, HCl salts, read-out: Ki ± SEM (nM) D3", "result": "2.8 ± 0.5", "unit": "nM"}, {"measurement": "D2/D3", "setting": "human D3 receptors; selectivity ratio of Ki D2 / Ki D3 (fold)", "result": 50.7}, {"measurement": "inhibition at 10 µM", "setting": "Serotonin 5-HT1B", "result": "< 50", "unit": "%"}, {"measurement": "Ki", "setting": "Serotonin 5-HT2C", "result": 5.78, "unit": "µM"}, {"measurement": "Ki", "setting": "Muscarinic M3", "result": 1.55, "unit": "µM"}]}
